Test results as given in the supplement of paper PMC10307832.

compound: C1CCC(CC1)N(CCNCCC2=C3C(=C(C=C2)O)NC(=O)CO3)C(=O)CCNCCC4=CC(=C(C=C4)Cl)Cl [AZ505] + Nc1ncn([C@H]2C[C@H](O)[C@@H](CO)O2)c(=O)n1 [Decitabine] (partner 2 µM); test: relative viability (nuclei count vs DMSO), 5 days (fraction); higher = more cells survive; conditions: first compound 0.08 µM
How it was run: (§1)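 After 5 days of treatment, lung cancer cells in 1536-well plates were fixed and stained in a single step (final 0.05% Triton X-100, 1% formaldehyde, 1 ug/ml Hoechst) and their nuclei counted on 4× images. Treatment had been applied by pin tool the day after seeding as one drug alone or as a fixed anchor-drug dose with five library-drug doses (not always all listed) in √10 steps. Relative viability is the nuclei count of treated wells divided by that of vehicle wells, and values are medians of duplicate plates.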

Cell Line	relative viability
NCI-H2342	0.792
NCI-H727	0.829
NCI-H1650	0.367
NCI-H1993	0.595
SK-LU-1	0.518
NCI-H838	0.444
LCLC-103H	0.73
NCI-H520	0.458
NCI-H2126	0.589
EMC-BAC-2	0.938
NCI-H2085	0.571
HCC-366	0.342
NCI-H1666	0.69
NCI-H596	0.976
LK-2	0.22
NCI-H2087	0.224
SK-MES-1	0.369
COR-L23	0.378
COR-L 105	0.375
LOU-NH91	0.783
ChaGo-K-1	0.51
NCI-H2170	0.469
NCI-H522	0.602
SW 900	0.537
NCI-H1395	0.745
NCI-H1793	0.588
NCI-H1944	0.436
ABC-1	1.07
NCI-H358	0.2

same assay, conditions: first compound 0.253 µM

Cell Line	relative viability
NCI-H2342	0.759
NCI-H727	0.693
NCI-H1650	0.405
NCI-H1993	0.602
SK-LU-1	0.568
NCI-H838	0.475
LCLC-103H	0.674
NCI-H520	0.583
NCI-H2126	0.6
NCI-H2085	0.551
HCC-366	0.344
NCI-H1666	0.667
LK-2	0.32
NCI-H2087	0.254
NCI-H1648	0.508
SK-MES-1	0.409
H3255	0.607
COR-L23	0.449
COR-L 105	0.653
LOU-NH91	0.818
ChaGo-K-1	0.529
NCI-H2170	0.466
A549	0.264
NCI-H522	0.689
SW 900	0.545
NCI-H1793	0.506
NCI-H1944	0.465
NCI-H358	0.209

same assay, conditions: first compound 0.8 µM

Cell Line	relative viability
NCI-H2342	0.728
NCI-H727	0.812
NCI-H1650	0.502
NCI-H1993	0.575
SK-LU-1	0.565
NCI-H838	0.461
LCLC-103H	0.707
NCI-H520	0.465
NCI-H2126	0.547
EMC-BAC-2	0.862
NCI-H2085	0.496
HCC-366	0.316
NCI-H1666	0.752
NCI-H596	0.974
LK-2	0.331
NCI-H2087	0.275

Cell Line	relative viability
NCI-H1648	0.538
SK-MES-1	0.392
H3255	0.583
COR-L23	0.381
COR-L 105	0.591
LOU-NH91	0.781
ChaGo-K-1	0.478
NCI-H2170	0.422
A549	0.295
NCI-H522	0.657
SW 900	0.419
NCI-H1395	0.664
NCI-H1793	0.454
NCI-H1944	0.414
ABC-1	1.11
NCI-H358	0.194

same assay, conditions: first compound 2.53 µM

Cell Line	relative viability
NCI-H2342	0.734
NCI-H727	0.849
NCI-H1650	0.368
NCI-H1993	0.617
SK-LU-1	0.406
NCI-H838	0.469
LCLC-103H	0.751
NCI-H520	0.519
NCI-H2126	0.563
EMC-BAC-2	0.924
NCI-H2085	0.565
HCC-366	0.316
NCI-H1666	0.659
NCI-H596	1.15
LK-2	0.33
NCI-H2087	0.289

Cell Line	relative viability
NCI-H1648	0.615
SK-MES-1	0.412
H3255	0.6
COR-L23	0.458
COR-L 105	0.637
LOU-NH91	0.801
ChaGo-K-1	0.541
NCI-H2170	0.482
A549	0.22
NCI-H522	0.599
SW 900	0.462
NCI-H1395	0.699
NCI-H1793	0.544
NCI-H1944	0.475
ABC-1	0.938
NCI-H358	0.218

same assay, conditions: first compound 8 µM

Cell Line	relative viability
NCI-H2342	0.841
NCI-H727	0.987
NCI-H1650	0.427
NCI-H1993	0.594
SK-LU-1	0.604
NCI-H838	0.506
LCLC-103H	0.702
NCI-H520	0.601
NCI-H2126	0.59
EMC-BAC-2	0.943
NCI-H2085	0.569
HCC-366	0.341
NCI-H1666	0.694
NCI-H596	0.979
LK-2	0.329
NCI-H2087	0.277

Cell Line	relative viability
NCI-H1648	0.522
SK-MES-1	0.439
H3255	0.925
COR-L23	0.443
COR-L 105	0.729
LOU-NH91	0.805
ChaGo-K-1	0.517
NCI-H2170	0.453
A549	0.284
NCI-H522	0.634
SW 900	0.489
NCI-H1395	0.767
NCI-H1793	0.549
NCI-H1944	0.418
ABC-1	1.04
NCI-H358	0.21

compound: C1CCC(CC1)N(CCNCCC2=C3C(=C(C=C2)O)NC(=O)CO3)C(=O)CCNCCC4=CC(=C(C=C4)Cl)Cl [AZ505] + CC(=O)Nc1cccc(-n2c(=O)n(C3CC3)c(=O)c3c(Nc4ccc(I)cc4F)n(C)c(=O)c(C)c32)c1 [Trametinib] (partner 0.02 µM); test: as above; conditions: first compound 0.08 µM
How it was run: as §1

Cell Line	relative viability
NCI-H2342	0.668
NCI-H727	0.418
NCI-H1650	0.48
NCI-H1993	0.463
SK-LU-1	0.366
NCI-H838	0.487
LCLC-103H	0.714
NCI-H520	0.766
NCI-H2126	0.523
EMC-BAC-2	0.83
NCI-H2085	0.49
HCC-366	0.288
NCI-H1666	0.878
NCI-H596	0.721
LK-2	0.661
NCI-H2087	0.171
SK-MES-1	0.513
COR-L23	0.45
COR-L 105	0.403
LOU-NH91	0.772
ChaGo-K-1	0.838
NCI-H2170	0.84
NCI-H522	0.71
SW 900	0.554
NCI-H1395	1.06
CAL-12T	0.335
NCI-H2228	0.311
NCI-H1793	0.382
NCI-H1944	0.377
NCI-H358	0.113

same assay, conditions: first compound 0.253 µM

Cell Line	relative viability
NCI-H2342	0.789
NCI-H727	0.411
NCI-H1650	0.686
NCI-H1993	0.533
SK-LU-1	0.377
NCI-H838	0.464
LCLC-103H	0.625
NCI-H520	0.638
NCI-H2126	0.592
NCI-H2085	0.477
HCC-366	0.331
NCI-H1666	0.873
LK-2	0.687
NCI-H2087	0.257
NCI-H1648	0.463
SK-MES-1	0.531
H3255	0.604
COR-L23	0.516
COR-L 105	0.452
LOU-NH91	0.77
ChaGo-K-1	0.918
NCI-H2170	0.931
NCI-H522	0.726
SW 900	0.846
CAL-12T	0.414
NCI-H2228	0.374
NCI-H1793	0.372
NCI-H1944	0.391
NCI-H358	0.136

same assay, conditions: first compound 0.8 µM

Cell Line	relative viability
NCI-H2342	1.01
NCI-H727	0.365
NCI-H1650	0.71
NCI-H1993	0.45
SK-LU-1	0.401
NCI-H838	0.505
LCLC-103H	0.604
NCI-H520	0.661
NCI-H2126	0.523
EMC-BAC-2	0.876
NCI-H2085	0.52
HCC-366	0.281
NCI-H1666	0.83
NCI-H596	0.593
LK-2	0.718
NCI-H2087	0.221

Cell Line	relative viability
NCI-H1648	0.528
SK-MES-1	0.532
H3255	0.543
COR-L23	0.519
COR-L 105	0.446
LOU-NH91	0.76
ChaGo-K-1	0.871
NCI-H2170	0.883
NCI-H522	0.945
SW 900	0.682
NCI-H1395	0.991
CAL-12T	0.312
NCI-H2228	0.441
NCI-H1793	0.416
NCI-H1944	0.414
NCI-H358	0.112

same assay, conditions: first compound 2.53 µM

Cell Line	relative viability
NCI-H2342	0.752
NCI-H727	0.391
NCI-H1650	0.556
NCI-H1993	0.575
SK-LU-1	0.383
NCI-H838	0.523
LCLC-103H	0.669
NCI-H520	0.639
NCI-H2126	0.629
EMC-BAC-2	0.82
NCI-H2085	0.571
HCC-366	0.289
NCI-H1666	0.838
NCI-H596	0.648
LK-2	0.865
NCI-H2087	0.281

Cell Line	relative viability
NCI-H1648	0.576
SK-MES-1	0.508
H3255	0.578
COR-L23	0.534
COR-L 105	0.428
LOU-NH91	0.798
ChaGo-K-1	0.846
NCI-H2170	0.893
NCI-H522	0.842
SW 900	0.72
NCI-H1395	1.01
CAL-12T	0.36
NCI-H2228	0.49
NCI-H1793	0.428
NCI-H1944	0.444
NCI-H358	0.119

same assay, conditions: first compound 8 µM

Cell Line	relative viability
NCI-H2342	1.01
NCI-H727	0.358
NCI-H1650	0.626
NCI-H1993	0.469
SK-LU-1	0.407
NCI-H838	0.479
LCLC-103H	0.69
NCI-H520	0.699
NCI-H2126	0.574
EMC-BAC-2	0.902
NCI-H2085	0.591
HCC-366	0.332
NCI-H1666	0.781
NCI-H596	0.674
LK-2	0.865
NCI-H2087	0.219

Cell Line	relative viability
NCI-H1648	0.497
SK-MES-1	0.584
H3255	0.611
COR-L23	0.482
COR-L 105	0.476
LOU-NH91	0.765
ChaGo-K-1	0.91
NCI-H2170	0.942
NCI-H522	0.8
SW 900	0.813
NCI-H1395	1.14
CAL-12T	0.337
NCI-H2228	0.429
NCI-H1793	0.434
NCI-H1944	0.386
NCI-H358	0.13

compound: Cn1c(=O)n(-c2ccc(C(C)(C)C#N)cc2)c2c3cc(-c4cnc5ccccc5c4)ccc3ncc21 [Dactolisib] + C[C@@H](Oc1cc(-c2cnn(C3CCNCC3)c2)cnc1N)c1c(Cl)ccc(F)c1Cl [Crizotinib] (partner 1 µM); test: as above; conditions: first compound 0.002 µM
How it was run: as §1

Cell Line	relative viability
NCI-H727	0.915
